Data: US12264173B2 (GILEAD SCIENCES, INC., priority 2020, dated 2025)
Read-outs that look alike come from different tables or passages of the source.

How the values were obtained:
Format in all cases: cell-based
DENV2 replicon = test: DENV-2 Huh-7 Rep EC50 (replicon luminescence)
Experimental: In 384 well plates (Greiner, Cat #781091), compounds were acoustically transferred at 200 nl per well in a 8 compound (4 replicates) or 40 compound dose response format (3 replicates). For all plates tested, Balapiravir, GS-5734 and NITD008 were included as positive inhibition controls alongside 0% inhibition, DMSO-only negative control wells. Following compound addition, Huh-7 cells containing the DENV2 replicon construct were harvested following standard cell culture procedures and were adjusted to a concentration of 1.25E5 cells/mL in cell culture media composed of cDMEM without genticin. 40 μL of the cell stock was then added to each well for a final cell density of 5,000 cells/well. Cell and compound mixtures were incubated at 37° C./5% CO2 for 48 hours. Prior to harvesting cells, EnduRen Live Cell Substrate (Promega, Cat #E6481) was prepared by suspending 3.4 mg into 100 uL of DMSO to generate a 60 mM stock solution. The stock solution was then diluted 1:200 in pre-warmed cDMEM and 10 uL of this diluted solution was added to each well of the 384 well plates. Plates were then centrifuged at 500 rpm briefly and were placed on a plate shaker for 2 min. Following mixing, plates were incubated at […] for 1.5 hours prior to measuring luminescence on an Envision luminometer.

RSV strain A2 = test: microbe, parasite or virus in culture; conditions: read-out: RSV HEp-2 EC50
Summary of the method: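 Cytopathic-effect protection assay: HEp-2 cells (50,000/mL) infected with pre-titered RSV A2 onto 3-fold serial compound dilutions, incubated 4 days at 37° C. Cell viability read by CellTiter-Glo luminescence; percent inhibition derived against 0% and 100% virus-inhibition controls.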

RSV A2 = test: RSV NHBE EC50 (RSV A2 antiviral assay in NHBE cells); conditions: read-out: RSV NHBE EC50
Summary of the method: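 Antiviral activity against RSV A2 was determined in NHBE cells used within 6 passages, with cell viability quantified by CellTiter-Glo after a 4-day infection.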

[1] = Dengue virus, DENV2, Huh-7, read-out: DENV Rep EC50
[2] = human respiratory syncytial virus, HEp-2, Table 5 comparative activity, 2',3'-OH vs -OC(O)iPr
[3] = human respiratory syncytial virus, NHBE, Table 5 comparative activity, 2',3'-OH vs -OC(O)iPr
[4] = human respiratory syncytial virus, HEp-2, 96 h, Table 3, HEp-2 cells, RSV A2, 4 days
[5] = human respiratory syncytial virus, NHBE, 96 h, Table 3, NHBE cells, RSV A2, 4 days
[6] = Dengue virus, DENV2, Huh-7, 48 h, read-out: DENV-2 REP Huh7 EC50
[7] = Table 3, Huh-7 DENV2 replicon cells, 48 hours, read-out: DENV-2 REP Huh7 EC50
[8] = Table 3, HEp-2 cells, RSV A2, 4 days
[9] = Table 3, NHBE cells, RSV A2, 4 days

Row | SMILES | EC50 (RSV strain A2; [4]) [µM] | EC50 (RSV A2; [5]) [µM] | EC50 (DENV2 replicon; [6]) [µM] | EC50 (DENV2 replicon; [7]) [µM] | EC50 (RSV strain A2; [8]) [µM] | EC50 (RSV A2; [9]) [µM] | other results
1 | C[C@H](NP(=O)(OC[C@@]1(C#N)O[C@@H](c2ccc3c(N)ncnn23)[C@H](O)[C@@H]1O)Oc1ccccc1)C(=O)OCC1CCOCC1 (stereo partly drawn) [Example 20, (tetrahydro-2H-pyran-4-yl)methyl ((((2R,3S,4R,5S)-5-(4-aminopyrrolo[2,1-f][1,2,4]triazin-7-yl)-2-cyano-3,4-dihydroxytetrahydrofuran-2-yl)methoxy)(phenoxy)phosphoryl)-L-alaninate] | – | – | – | – | – | – | EC50 (DENV2 replicon; [1]): > 50 µM; EC50 (RSV strain A2; [2]): 0.877 µM; EC50 (RSV A2; [3]): 2.23 µM
2 | CC(C)OC(=O)[C@H](C)NP(=O)(OCCS(C)(=O)=O)OC[C@@]1(C#N)O[C@@H](c2ccc3c(N)ncnn23)[C@H](OC(=O)C(C)C)[C@@H]1OC(=O)C(C)C (stereo partly drawn) [Example 210, (2R,3S,4S,5S)-5-(4-aminopyrrolo[2,1-f][1,2,4]triazin-7-yl)-2-cyano-2-((((((S)-1-isopropoxy-1-oxopropan-2-yl)amino)(2-(methylsulfonyl)ethoxy)phosphoryl)oxy)methyl)tetrahydrofuran-3,4-diyl bis(2-methylpropanoate)] | 36.3 | 3.42 | – | – | – | – | EC50 (DENV2 replicon; Dengue virus, DENV2, Huh-7, 48 h, read-out: DENV-2 REP Huh7 EC50, Table 3, Huh-7 DENV2 replicon cells, 48 hours): > 35.4 µM
3 | CC(=O)OC1[C@H](c2ccc3c(N)ncnn23)O[C@](C#N)(COP(=O)(N[C@@H](C)C(=O)OCC2CCC2)Oc2ccccc2)[C@H]1OC(C)=O (stereo in doubt) [Example 94, (2R,3S,4R,5S)-5-(4-aminopyrrolo[2,1-f][1,2,4]triazin-7-yl)-2-cyano-2-((((((S)-1-(cyclobutylmethoxy)-1-oxopropan-2-yl)amino)(phenoxy)phosphoryl)oxy)methyl) tetrahydrofuran-3,4-diyl diacetate] | 0.189 | 0.041 | 13.7 | – | – | – | –
4 | CCC(CC)COC(=O)[C@H](C)N[P@](=O)(OC[C@@]1(C#N)O[C@@H](c2ccc3c(N)ncnn23)[C@H](OC(C)=O)[C@@H]1OC(C)=O)Oc1ccccc1 [Example 88, (2R,3S,4S,5S)-5-(4-aminopyrrolo[2,1-f][1,2,4]triazin-7-yl)-2-cyano-2-((((S)-(((S)-1-(2-ethylbutoxy)-1-oxopropan-2-yl)amino)(phenoxy)phosphoryl)oxy)methyl) tetrahydrofuran-3,4-diyl diacetate] | 0.108 | 0.042 | 8.82 | – | – | – | –
5 | CC(C)C(=O)O[C@H]1[C@H](c2ccc3c(N)ncnn23)O[C@](C#N)(COP(=O)(N[C@@H](C)C(=O)OCC2CCOCC2)Oc2ccccc2)[C@H]1OC(=O)C(C)C (mixture of isomers) [Example 181, (2R,3S,4S,5S)-5-(4-aminopyrrolo[2,1-f][1,2,4]triazin-7-yl)-2-cyano-2-((((((S)-1-oxo-1-((tetrahydro-2H-pyran-4-yl)methoxy)propan-2-yl)amino)(phenoxy)phosphoryl)oxy)methyl)tetrahydrofuran-3,4-diyl bis(2-methylpropanoate)] | 0.084 | 0.03 | 6.63 | – | – | – | EC50 (DENV2 replicon; [1]): 6.63 µM; EC50 (RSV strain A2; [2]): 0.084 µM; EC50 (RSV A2; [3]): 0.03 µM
6 | CC(=O)O[C@H]1[C@H](c2ccc3c(N)ncnn23)O[C@](C#N)(CO[P@@](=O)(N[C@@H](C)C(=O)OCC2CCOCC2)Oc2ccccc2)[C@H]1OC(C)=O [Example 111] | – | – | – | > 100 | 0.873 | 0.044 | –
7 | COC(=O)[C@H](C)N[P@](=O)(OC[C@@]1(C#N)O[C@@H](c2ccc3c(/N=C/N(C)C)ncnn23)[C@H](OC(=O)C(C)C)[C@@H]1OC(=O)C(C)C)Oc1ccccc1 [Example 260, (2R,3S,4S,5S)-2-Cyano-5-(4-(((E)-(dimethylamino)methylene)amino)pyrrolo[2,1-f][1,2,4]triazin-7-yl)-2-((((S)-(((S)-1-methoxy-1-oxopropan-2-yl)amino)(phenoxy)phosphoryl)oxy)methyl) tetrahydrofuran-3,4-diyl bis(2-methylpropanoate)] | 0.041 | 0.012 | 2.79 | – | – | – | –
8 | C[C@H](NP(=O)(OC[C@@]1(C#N)O[C@@H](c2ccc3c(N)ncnn23)[C@H](OC(=O)C(C)(C)C)[C@@H]1OC(=O)C(C)(C)C)Oc1ccccc1)C(=O)OC1CCOCC1 (single isomer, unassigned) [Example 172] | – | – | – | 16.8 | 1.1 | 0.145 | –
9 | CC(C)C(=O)O[C@H]1[C@H](c2ccc3c(N)ncnn23)O[C@](C#N)(COP(=O)(N[C@@H](C)C(=O)OC2CCCC2)Oc2ccccc2)[C@H]1OC(=O)C(C)C (stereo partly drawn) [Example 254, (2R,3S,4S,5S)-5-(4-aminopyrrolo[2,1-f][1,2,4]triazin-7-yl)-2-cyano-2-((((((S)-1-(cyclopentyloxy)-1-oxopropan-2-yl)amino)(phenoxy)phosphoryl)oxy)methyl) tetrahydrofuran-3,4-diyl bis(2-methylpropanoate)] | 0.036 | 0.024 | 29.4 | – | – | – | –
10 | CC(C)C(=O)O[C@H]1[C@H](c2ccc3c(N)ncnn23)O[C@](C#N)(COP(=O)(N[C@@H](C)C(=O)OCC(C)(C)O)Oc2ccccc2)[C@H]1OC(=O)C(C)C (single isomer, unassigned) [Example 258] | – | – | – | 18.3 | 0.091 | 0.034 | –
11 | CCC(=O)OC1[C@H](c2ccc3c(N)ncnn23)O[C@](C#N)(COP(=O)(N[C@@H](C)C(=O)OCC2CCN(CC(F)(F)F)CC2)Oc2ccccc2)[C@H]1OC(=O)CC (stereo in doubt) [Example 115, (2R,3S,4R,5S)-5-(4-aminopyrrolo[2,1-f][1,2,4]triazin-7-yl)-2-cyano-2-((((((S)-1-oxo-1-((1-(2,2,2-trifluoroethyl)piperidin-4-yl)methoxy)propan-2-yl)amino)(phenoxy)phosphoryl)oxy)methyl)tetrahydrofuran-3,4-diyl dipropionate] | 0.112 | 0.022 | 20.4 | – | – | – | –
12 | CC(C)C(=O)O[C@H]1[C@H](c2ccc3c(N)ncnn23)O[C@](C#N)(COP(=O)(N[C@@H](C)C(=O)OC2CC2)Oc2ccccc2)[C@H]1OC(=O)C(C)C (stereo partly drawn) [Example 255, (2R,3S,4S,5S)-5-(4-aminopyrrolo[2,1-f][1,2,4]triazin-7-yl)-2-cyano-2-((((((S)-1-cyclopropoxy-1-oxopropan-2-yl)amino)(phenoxy)phosphoryl)oxy)methyl) tetrahydrofuran-3,4-diyl bis(2-methylpropanoate)] | 0.038 | 0.018 | 2.91 | – | – | – | –
13 | CC(=O)OC1[C@H](c2ccc3c(N)ncnn23)O[C@](C#N)(COP(=O)(N[C@@H](C)C(=O)OCC2CC2)Oc2ccccc2)[C@H]1OC(C)=O (stereo in doubt) [Example 101, (2R,3S,4R,5S)-5-(4-aminopyrrolo[2,1-f][1,2,4]triazin-7-yl)-2-cyano-2-((((((S)-1-(cyclopropylmethoxy)-1-oxopropan-2-yl)amino)(phenoxy)phosphoryl)oxy)methyl) tetrahydrofuran-3,4-diyl diacetate] | 0.094 | 0.019 | 25.8 | – | – | – | –
14 | CC(C)OC(=O)[C@H](C)NP(=O)(OC[C@@]1(C#N)O[C@@H](c2ccc3c(N)ncnn23)[C@H](OC(=O)C(C)C)[C@@H]1OC(=O)C(C)C)Oc1ccc(C(=O)N(C)C)cc1 (stereo partly drawn) [Example 177, (2R,3S,4S,5S)-5-(4-Aminopyrrolo[2,1-f][1,2,4]triazin-7-yl)-2-cyano-2-((((4-(dimethylcarbamoyl)phenoxy)(((S)-1-isopropoxy-1-oxopropan-2-yl)amino)phosphoryl)oxy)methyl)tetrahydrofuran-3,4-diyl bis(2-methylpropanoate)] | 0.12 | 0.049 | 27.2 | – | – | – | –
15 | CC(=O)O[C@H]1[C@H](c2ccc3c(N)ncnn23)O[C@](C#N)(COP(=O)(N[C@@H](C)C(=O)OC2CCOCC2)Oc2ccccc2)[C@H]1OC(C)=O (single isomer, unassigned) [Example 164] | – | – | – | > 100 | 1.69 | 0.148 | –
16 | CC(=O)O[C@H]1[C@H](c2ccc3c(N)ncnn23)O[C@](C#N)(CO[P@](=O)(N[C@@H](C)C(=O)OCC2CC2)Oc2ccccc2)[C@H]1OC(C)=O [Example 103] | – | – | – | 10.5 | 0.094 | 0.032 | –
